“Also recorded” adds a separate entry of the source.
Assays:
HD-MSNs [1] = assay: Spontaneous cell death of HD-MSNs by SYTOX green dead-cell staining; assay type: cell-based, human; conditions: 0.5 μM added at 30 days post induction, assessed at PID 35, vs DMSO
Protocol: (§1) In addition, Hoechst 33342 solution (Thermo Fisher Scientific) was added as a counterstain to label all nuclei at a final concentration of 1 μg/ml in culture media. Samples were incubated for at least 10 minutes in 37° C. Images were captured using a Leica DMI 400B inverted microscope with Leica Application Suite (LAS) Advanced Fluorescence. Three images were taken from random areas of each coverslip for at least three biological replicates per experiment. Quantification performed by counting number of SYTOX-positive cells over total Hoechst signal.
(§2) The ATM-Kinase inhibitor KU-60019 was obtained from Abcam (ab144817), solubilized in DMSO and directly added to the cell culture media for a final concentration of 0.5 μM at 30 days post miR-9/9*-124 induction, then cell death was assessed by SYTOX at PID 35. Controls were treated with the same volume of DMSO but no drug. At day 35, cells treated with DMSO or KU-60019 also were treated with 1 mM of H2O2 for three hours. SYTOX green/Hoechst stain was added as already described and imaged for scoring.

HD-MSNs [2] = assay: H2O2-induced oxidative stress cell death of HD-MSNs (SYTOX green/Hoechst); assay type: cell-based, human; conditions: 0.5 μM, 1 mM H2O2 for three hours at day 35, vs DMSO
Protocol: as §1, §2

ATM = ATM (Homo sapiens, UniProt Q13315); conditions: earlier findings; cited from earlier work
ATM, sequence (Q13315 whole entry, species assumed): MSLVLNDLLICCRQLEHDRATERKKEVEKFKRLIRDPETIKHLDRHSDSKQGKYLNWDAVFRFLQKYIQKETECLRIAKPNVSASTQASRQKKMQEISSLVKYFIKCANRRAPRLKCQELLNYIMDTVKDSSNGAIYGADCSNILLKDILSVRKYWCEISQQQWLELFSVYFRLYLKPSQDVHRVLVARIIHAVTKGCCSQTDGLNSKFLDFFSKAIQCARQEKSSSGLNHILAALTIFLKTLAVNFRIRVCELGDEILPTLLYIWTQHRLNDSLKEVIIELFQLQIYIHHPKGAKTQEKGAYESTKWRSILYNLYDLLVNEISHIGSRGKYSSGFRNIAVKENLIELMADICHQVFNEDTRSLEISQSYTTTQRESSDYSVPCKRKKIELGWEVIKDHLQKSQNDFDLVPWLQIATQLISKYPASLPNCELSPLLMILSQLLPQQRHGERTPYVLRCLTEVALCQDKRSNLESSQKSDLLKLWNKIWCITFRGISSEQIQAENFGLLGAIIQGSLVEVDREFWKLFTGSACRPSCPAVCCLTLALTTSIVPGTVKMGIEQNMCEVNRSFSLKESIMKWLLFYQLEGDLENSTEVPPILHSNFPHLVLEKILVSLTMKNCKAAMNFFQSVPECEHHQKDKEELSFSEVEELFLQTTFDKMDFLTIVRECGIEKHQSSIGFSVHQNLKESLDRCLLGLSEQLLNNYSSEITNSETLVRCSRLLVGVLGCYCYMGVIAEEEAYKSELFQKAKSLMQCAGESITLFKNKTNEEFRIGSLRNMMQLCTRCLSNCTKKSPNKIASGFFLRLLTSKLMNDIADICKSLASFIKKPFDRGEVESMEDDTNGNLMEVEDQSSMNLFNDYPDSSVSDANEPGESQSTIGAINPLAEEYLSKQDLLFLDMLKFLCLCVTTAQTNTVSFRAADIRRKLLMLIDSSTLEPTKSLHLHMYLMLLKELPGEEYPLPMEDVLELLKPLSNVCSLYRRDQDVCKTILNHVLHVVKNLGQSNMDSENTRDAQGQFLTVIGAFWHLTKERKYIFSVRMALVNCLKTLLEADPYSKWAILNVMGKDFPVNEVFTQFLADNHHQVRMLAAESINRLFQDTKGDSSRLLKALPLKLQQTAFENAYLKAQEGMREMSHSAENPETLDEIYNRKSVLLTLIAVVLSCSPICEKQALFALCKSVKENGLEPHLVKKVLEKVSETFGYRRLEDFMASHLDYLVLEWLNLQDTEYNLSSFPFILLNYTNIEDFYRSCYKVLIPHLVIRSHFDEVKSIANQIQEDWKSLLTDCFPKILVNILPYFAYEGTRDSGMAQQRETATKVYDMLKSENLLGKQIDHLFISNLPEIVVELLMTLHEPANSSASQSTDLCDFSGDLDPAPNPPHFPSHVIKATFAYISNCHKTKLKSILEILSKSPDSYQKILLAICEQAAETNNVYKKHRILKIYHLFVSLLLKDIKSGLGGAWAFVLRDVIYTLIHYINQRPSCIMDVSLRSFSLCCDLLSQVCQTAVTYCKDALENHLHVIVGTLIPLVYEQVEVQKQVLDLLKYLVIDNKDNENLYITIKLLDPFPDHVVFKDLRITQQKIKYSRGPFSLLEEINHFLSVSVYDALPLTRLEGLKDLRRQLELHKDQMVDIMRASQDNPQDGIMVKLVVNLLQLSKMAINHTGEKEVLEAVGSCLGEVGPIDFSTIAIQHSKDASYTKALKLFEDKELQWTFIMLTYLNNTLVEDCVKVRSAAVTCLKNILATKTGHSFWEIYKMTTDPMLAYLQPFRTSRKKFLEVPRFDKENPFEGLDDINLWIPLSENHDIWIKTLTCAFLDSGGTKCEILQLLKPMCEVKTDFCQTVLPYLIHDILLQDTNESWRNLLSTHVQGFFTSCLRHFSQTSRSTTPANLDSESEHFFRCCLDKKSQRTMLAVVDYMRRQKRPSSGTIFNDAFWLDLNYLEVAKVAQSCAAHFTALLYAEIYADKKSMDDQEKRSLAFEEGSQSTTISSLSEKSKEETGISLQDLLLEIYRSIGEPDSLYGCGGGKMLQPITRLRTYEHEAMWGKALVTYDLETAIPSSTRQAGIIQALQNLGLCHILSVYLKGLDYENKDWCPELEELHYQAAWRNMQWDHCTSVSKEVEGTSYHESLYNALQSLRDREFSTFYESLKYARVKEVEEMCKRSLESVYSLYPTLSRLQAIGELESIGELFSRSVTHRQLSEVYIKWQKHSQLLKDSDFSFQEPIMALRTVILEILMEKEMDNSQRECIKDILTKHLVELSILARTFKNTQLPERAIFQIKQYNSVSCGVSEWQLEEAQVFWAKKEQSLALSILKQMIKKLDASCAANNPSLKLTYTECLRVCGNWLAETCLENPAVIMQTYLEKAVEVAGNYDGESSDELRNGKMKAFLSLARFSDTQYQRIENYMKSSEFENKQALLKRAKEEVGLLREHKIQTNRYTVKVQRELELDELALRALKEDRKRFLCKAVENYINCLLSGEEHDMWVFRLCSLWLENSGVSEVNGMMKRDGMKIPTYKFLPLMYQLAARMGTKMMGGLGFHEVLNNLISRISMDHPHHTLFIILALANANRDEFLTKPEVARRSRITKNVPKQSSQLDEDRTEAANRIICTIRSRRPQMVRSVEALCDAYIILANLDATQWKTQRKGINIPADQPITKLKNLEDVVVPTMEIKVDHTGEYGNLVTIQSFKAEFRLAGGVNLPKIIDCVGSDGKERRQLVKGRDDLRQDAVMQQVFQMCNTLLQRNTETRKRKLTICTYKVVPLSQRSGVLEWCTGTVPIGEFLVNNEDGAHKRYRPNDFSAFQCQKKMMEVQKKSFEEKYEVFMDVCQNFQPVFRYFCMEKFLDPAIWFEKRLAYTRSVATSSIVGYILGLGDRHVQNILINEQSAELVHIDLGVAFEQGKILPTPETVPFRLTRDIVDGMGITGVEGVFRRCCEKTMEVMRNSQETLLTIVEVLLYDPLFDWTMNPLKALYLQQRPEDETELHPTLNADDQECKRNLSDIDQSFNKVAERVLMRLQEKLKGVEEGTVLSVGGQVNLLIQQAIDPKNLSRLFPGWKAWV

[3] = test system: GFP-74Q-expressing HEF cells; assay: Inclusion body formation in GFP-74Q-expressing HEFs after proteasome inhibition; assay type: cell-based, human; conditions: 5 μM, 24 hours later, vs DMSO
Text: Because the findings contrasted with previous studies that report the lack of mHTT aggregates in iPSC-derived neurons from HD patients, it was decided to directly test if altering the cellular state of adult HD fibroblasts to an embryonic-like stage, a process that effectively erases aging markers, would affect the aggregation propensity of mHTT in HD-MSNs. HD-iPSCs were derived from adult HD fibroblasts and these stem cells were differentiated back into fibroblasts using a method for generating human embryonic fibroblasts (HEFs) (see e.g., FIG. 26A and FIG. 27A). […] HD.40-HEFs expressed fibroblast markers vimentin and fibronectin (see e.g., FIG. 26B). […] Upon direct conversion of HD.40-HEFs to MSNs (human embryonic MSNs, heMSNs), little to no aggregated mHTT was detectable in HD-heMSNs at PID 21 (see e.g., FIG. FIGS. 24B and 24C). […] It was then decided to investigate differences in mHTT aggregation propensity to elucidate the contribution of aging to protein aggregation in HD. […] To directly test if proteasome activity was preventing the formation of inclusions in HEFs, GFP-74Q-expressing HEF cells were treated with the proteasome inhibitor lactacystin, and assessed the presence of inclusions 24 hours later. […]

SMILES | levels of spontaneous cell death (SYTOX-positive cells over Hoechst) (HD-MSNs [1]) | levels of stress-induced cell death (H2O2-induced oxidative stress) (HD-MSNs [2]) | mHTT-induced cell death (ATM) | number of cells bearing inclusions (IBs) [3] | number of cells bearing inclusions (IBs) ([3]; listed as Lactacystin)
C[C@@H]1CN(CC(=O)Nc2ccc3c(c2)Cc2cccc(-c4cc(=O)cc(N5CCOCC5)o4)c2S3)C[C@H](C)O1 [KU60019] | significantly reduced; also recorded: reduces cell death levels | significantly reduced; also recorded: protects HD-MSNs against H2O2-induced oxidative stress | reduce mHTT-induced cell death | – | –
CC(=O)N[C@@H](CSC(=O)[C@]1([C@@H](O)C(C)C)NC(=O)[C@H](C)[C@@H]1O)C(=O)O [lactacystin] | – | – | – | induces IBs | significantly increased
